In US12187742B2 (XRAD Therapeutics, Inc., priority 2018, dated 2025) one finds IC50 data, which are given here for 16 compounds.

One experiment has as its target DNA-PK (Homo sapiens (Human), UniProt P78527). The experiment can be described thus: DNA-PK Enzyme-Linked Immunosorbent Assay (phosphorylation of GST-p53 (1-101) peptide). The class given is biochemical. Conditions: ELISA. The essentials: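 Inhibition measured by 450 nm absorbance after HRP/TMB detection of phospho-Ser15 on immobilized GST-p53 (1-101). The kinase reaction used 0.1 μg/mL DNA-PK and 20 μM ATP, 1 h at 25 °C. Ten 3-fold compound dilutions, top final concentration 100 nM.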

The next experiment concerns the target ATM (Homo sapiens (Human), UniProt Q13315). As to the kind of experiment: ATM in Cell Western Assay (pKAP1 in etoposide-treated MCF-7 cells). The experiment is classed as cell-based. The essentials:
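After paraformaldehyde fixation and Triton X-100 permeabilization, immunostained plates were read by infrared scanning (ODYSSEY CLx). Compound was given as 10 doses, 3-fold dilutions from a 1 μM final top concentration.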

Where [1] appears, read: MCF-7 cells, etoposide 100 μM, 1 hr, pKAP1 readout.
[2] abbreviates: pKAP1 in etoposide-treated MCF-7 cells.

Where a name gives a salt, the structure may show the parent alone. Where only a bound is given, the exact number is not on record here.

ATM, sequence (Q13315 whole entry): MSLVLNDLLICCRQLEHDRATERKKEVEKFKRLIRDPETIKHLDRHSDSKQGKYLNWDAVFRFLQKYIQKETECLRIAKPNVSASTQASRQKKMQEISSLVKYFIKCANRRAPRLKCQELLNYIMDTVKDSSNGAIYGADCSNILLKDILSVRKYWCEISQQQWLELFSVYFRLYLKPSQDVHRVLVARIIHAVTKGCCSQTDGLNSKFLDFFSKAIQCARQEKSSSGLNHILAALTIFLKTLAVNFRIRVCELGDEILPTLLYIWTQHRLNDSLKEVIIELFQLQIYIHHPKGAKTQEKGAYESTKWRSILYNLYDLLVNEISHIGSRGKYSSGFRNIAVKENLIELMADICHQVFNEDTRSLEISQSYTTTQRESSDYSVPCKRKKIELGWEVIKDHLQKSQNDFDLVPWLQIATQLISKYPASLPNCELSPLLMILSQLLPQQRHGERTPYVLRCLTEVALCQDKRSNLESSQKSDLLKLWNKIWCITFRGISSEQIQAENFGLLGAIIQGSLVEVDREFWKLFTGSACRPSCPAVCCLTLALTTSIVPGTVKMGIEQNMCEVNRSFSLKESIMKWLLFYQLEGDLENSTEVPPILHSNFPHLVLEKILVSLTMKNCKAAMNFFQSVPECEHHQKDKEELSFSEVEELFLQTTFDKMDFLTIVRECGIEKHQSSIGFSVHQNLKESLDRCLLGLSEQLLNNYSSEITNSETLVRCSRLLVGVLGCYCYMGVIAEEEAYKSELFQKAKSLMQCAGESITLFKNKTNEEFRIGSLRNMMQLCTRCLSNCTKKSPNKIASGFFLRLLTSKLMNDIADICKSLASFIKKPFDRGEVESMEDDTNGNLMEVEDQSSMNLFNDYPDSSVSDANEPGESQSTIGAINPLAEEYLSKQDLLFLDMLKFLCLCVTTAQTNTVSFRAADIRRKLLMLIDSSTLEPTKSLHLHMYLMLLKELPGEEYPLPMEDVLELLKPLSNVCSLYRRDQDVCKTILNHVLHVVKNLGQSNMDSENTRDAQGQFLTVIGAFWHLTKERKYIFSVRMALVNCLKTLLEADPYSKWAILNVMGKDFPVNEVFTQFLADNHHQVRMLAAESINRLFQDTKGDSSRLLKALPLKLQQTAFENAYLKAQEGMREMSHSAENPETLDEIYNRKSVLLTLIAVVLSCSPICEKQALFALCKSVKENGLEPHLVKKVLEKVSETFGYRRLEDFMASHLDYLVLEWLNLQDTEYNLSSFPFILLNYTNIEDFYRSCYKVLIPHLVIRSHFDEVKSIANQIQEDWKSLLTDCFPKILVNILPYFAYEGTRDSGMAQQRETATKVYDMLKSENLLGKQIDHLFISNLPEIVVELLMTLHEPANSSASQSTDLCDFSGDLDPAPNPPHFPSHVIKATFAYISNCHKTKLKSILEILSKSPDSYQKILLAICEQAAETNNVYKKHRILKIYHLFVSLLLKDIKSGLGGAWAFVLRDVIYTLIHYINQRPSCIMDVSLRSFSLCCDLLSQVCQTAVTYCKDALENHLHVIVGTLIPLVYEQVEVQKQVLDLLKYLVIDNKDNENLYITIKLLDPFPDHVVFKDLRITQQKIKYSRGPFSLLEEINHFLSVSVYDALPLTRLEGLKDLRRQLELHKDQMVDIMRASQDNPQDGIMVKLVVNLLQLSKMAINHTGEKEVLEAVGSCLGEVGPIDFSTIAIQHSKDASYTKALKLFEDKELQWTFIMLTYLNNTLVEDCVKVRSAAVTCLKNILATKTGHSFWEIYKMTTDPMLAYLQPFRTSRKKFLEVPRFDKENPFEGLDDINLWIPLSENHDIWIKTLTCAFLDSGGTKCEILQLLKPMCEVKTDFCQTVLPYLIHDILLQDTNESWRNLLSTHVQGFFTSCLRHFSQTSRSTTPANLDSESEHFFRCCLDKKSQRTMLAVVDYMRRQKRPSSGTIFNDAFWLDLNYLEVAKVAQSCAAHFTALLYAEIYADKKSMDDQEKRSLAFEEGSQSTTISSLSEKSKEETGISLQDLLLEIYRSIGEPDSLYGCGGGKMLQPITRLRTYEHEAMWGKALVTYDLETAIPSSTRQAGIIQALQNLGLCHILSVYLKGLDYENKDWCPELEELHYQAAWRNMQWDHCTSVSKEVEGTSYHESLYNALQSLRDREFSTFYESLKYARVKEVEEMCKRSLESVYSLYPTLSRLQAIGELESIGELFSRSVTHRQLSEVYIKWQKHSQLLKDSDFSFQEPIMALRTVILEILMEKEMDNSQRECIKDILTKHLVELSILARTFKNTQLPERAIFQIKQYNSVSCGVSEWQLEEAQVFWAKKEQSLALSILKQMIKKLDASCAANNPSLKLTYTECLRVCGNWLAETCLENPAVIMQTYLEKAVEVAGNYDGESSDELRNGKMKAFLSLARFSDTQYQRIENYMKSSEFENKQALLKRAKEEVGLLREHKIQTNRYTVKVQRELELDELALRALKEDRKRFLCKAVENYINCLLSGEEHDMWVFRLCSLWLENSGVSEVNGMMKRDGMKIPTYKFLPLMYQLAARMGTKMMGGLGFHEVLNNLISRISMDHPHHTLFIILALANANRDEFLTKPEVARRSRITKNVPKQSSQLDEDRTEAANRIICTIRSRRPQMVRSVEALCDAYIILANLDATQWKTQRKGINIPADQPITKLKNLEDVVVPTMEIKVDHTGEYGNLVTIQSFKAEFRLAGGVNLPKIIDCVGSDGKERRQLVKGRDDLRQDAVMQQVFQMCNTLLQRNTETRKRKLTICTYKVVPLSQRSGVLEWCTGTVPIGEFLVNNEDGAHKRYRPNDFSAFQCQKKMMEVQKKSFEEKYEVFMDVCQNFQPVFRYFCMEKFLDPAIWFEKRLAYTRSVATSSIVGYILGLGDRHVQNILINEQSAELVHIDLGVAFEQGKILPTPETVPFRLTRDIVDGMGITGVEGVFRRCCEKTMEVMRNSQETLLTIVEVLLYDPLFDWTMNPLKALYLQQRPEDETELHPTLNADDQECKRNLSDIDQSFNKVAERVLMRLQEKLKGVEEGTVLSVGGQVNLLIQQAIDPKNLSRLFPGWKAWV

Turning to `CNC1CN(c2ncc(-c3cc4c5c(cnc4cc3F)N(C)C(=O)C53CCC3)cc2NS(=O)(=O)N(C)C)C1` [Example 332, 8′-{5-[(Dimethylsulfamoyl)amino]-6-[3-(methylamino)azetidin-1-yl]pyridin-3-yl}-7′-fluoro-3′-methyl-2′,3′-dihydrospiro[cyclobutane-1,1′-pyrrolo[2,3-c]quinoline]-2′-one], the concentration for half-maximal inhibition (IC50) at DNA-PK (ATP 20 μM) and against ATM (setting [1]) was 1 to 100 nM throughout.

For the compound `CC(C)NCCOc1ncc(-c2cc3c4c(cnc3cc2F)N(C)C(=O)C42CCC2)cc1NS(=O)(=O)CCN(C)C` [Example 375, 2-(Dimethylamino)-N-(5-(7′-fluoro-3′-methyl-2′-oxo-2′,3′-dihydrospiro[cyclobutane-1,1′-pyrrolo[2,3-c]quinolin]-8′-yl)-2-(2-(isopropylamino)ethoxy)pyridin-3-yl)ethane-1-sulfonamide hydrochloride], the IC50 at DNA-PK (20 μM ATP) and at ATM (setting [2]) was 1 to 100 nM in each case.

`CN1C(=O)C2(CCC2)c2c1cnc1ccc(-c3cnc(N4CCC(N5CCCCC5)CC4)c(NS(=O)(=O)c4ccccc4)c3)cc21` [Example 155, N-(2-([1,4′-Bipiperidin]-1′-yl)-5-(3′-methyl-2′-oxo-2′,3′-dihydrospiro[cyclobulane-1,1′-pyrrolo[2,3-c]quinolin]-8′-yl)pyridin-3-yl)benzenesulfonamide hydrochloride]: the values for the IC50 against DNA-PK (ATP 20 μM) and against ATM (setting [1]) were 0.5 to 1 nM and 1 to 100 nM, respectively.

Consider `CC(C)NCCOc1ncc(-c2cc3c4c(cnc3cc2F)N(C)C(=O)C42CN(C3CCCC3)C2)cc1NS(C)(=O)=O` [Example 498, N-(5-(1-Cyclopentyl-7′-fluoro-3′-methyl-2′-oxo-2′,3′-dihydrospiro[azetidine-3,1′-pyrrolo[2,3-c]quinolin]-8′-yl)-2-(2-(isopropylamino)ethoxy)pyridin-3-yl)methanesulfonamide], for which the values for the IC50 at DNA-PK (20 μM ATP) and against ATM (setting [2]) were 0.5 to 1 nM and 1 to 100 nM, respectively.

As for `CN1C(=O)C2(CCC2)c2c1cnc1ccc(-c3cnc(N4CCC(N5CCCCC5)CC4)c(NS(=O)(=O)c4ccc(F)cc4F)c3)cc21` [Example 206, N-(2-([1,4′-Bipiperidin]-1′-yl)-5-(3′-methyl-2′-oxo-2′,3′-dihydrospiro[cyclobutane-1,1′-pyrrolo[2,3-c]quinolin]-8′-yl)pyridin-3-yl)-2,4-difluorobenzenesulfonamide hydrochloride], the half-maximal inhibitory concentration (IC50) was below 0.5 nM against DNA-PK (ATP 20 μM) and 1 to 100 nM at ATM (setting [1]).

Consider `Cc1cc(S(=O)(=O)Nc2cc(-c3ccc4ncc5c(c4c3)C3(CCC3)C(=O)N5C)cnc2OCCCN2CCCCC2)sn1` [Example 194, 3-Methyl-N-(5-(3′-methyl-2′-oxo-2′,3′-dihydrospiro[cyclobutane-1,1′-pyrrolo[2,3-c]quinolin]-8′-yl)-2-(3-(piperidin-1-yl)propoxy)pyridin-3-yl)isothiazole-5-sulfonamide hydrochloride], for which the IC50 against DNA-PK (ATP 20 μM) was below 0.5 nM; on ATM (setting [1]), 1 to 100 nM.

Regarding `CC(C)NCCOc1ncc(-c2cc3c4c(cnc3cc2F)N(C)C(=O)C42CN(c3ccccc3F)C2)cc1NS(C)(=O)=O` [Example 540, N-(5-(7′-Fluoro-1-(2-fluorophenyl)-3′-methyl-2′-oxo-2′,3′-dihydrospiro [azetidine-3,1′-pyrrolo[2,3-c]quinolin]-8′-yl)-2-(2-(isopropylamino)ethoxy)pyridin-3-yl)methanesulfonamide], the IC50 is below 0.5 nM against DNA-PK (20 μM ATP) and 1 to 100 nM against ATM (setting [2]).

`Cc1cccc(N2CC3(C2)C(=O)N(C)c2cnc4cc(F)c(-c5cnc(OCCNC(C)C)c(NS(C)(=O)=O)c5)cc4c23)c1` [Example 527, N-(5-(7′-Fluoro-3′-methyl-2′-oxo-1-(m-tolyl)-2′,3′-dihydrospiro[azetidine-3,1′-pyrrolo[2,3-c]quinolin]-8′-yl)-2-(2-(isopropylamino)ethoxy)pyridin-3-yl)methanesulfonamide]: the IC50 at DNA-PK (20 μM ATP) and against ATM (setting [2]) was 1 to 100 nM each time.

Take `CN1CCCC(COc2ncc(-c3ccc4ncc5c(c4c3)C3(CC3)C(=O)N5C)cc2NS(=O)(=O)C2CC2)C1` (centres unmarked) [Example 86, N-(5-(3′-Methyl-2′-oxo-2′,3′-dihydrospiro[cyclopropane-1,1′-pyrrolo[2,3-c]quinolin]-8′-yl)-2-((1-methylpiperidin-3-yl)methoxy)pyridin-3-yl)cyclopropanesulfonamide]: the IC50 against DNA-PK (ATP 20 μM) and at ATM (setting [1]) was 1 to 100 nM each time.

As to `CC(C)NCCOc1ncc(-c2cc3c4c(cnc3cc2F)N(C)C(=O)C42CN(c3cccc(Cl)c3)C2)cc1NS(C)(=O)=O` [Example 524, N-(5-(1-(3-Chlorophenyl)-7′-fluoro-3′-methyl-2′-oxo-2′,3′-dihydrospiro[azetidine-3,1′-pyrrolo[2,3-c]quinolin]-8′-yl)-2-(2-(isopropylamino)ethoxy)pyridin-3-yl)methanesulfonamide], the IC50 at DNA-PK (20 μM ATP) and at ATM (setting [2]) was 1 to 100 nM each time.

As for `CN(CCC#N)CCCOc1ncc(-c2ccc3ncc4c(c3c2)C2(CCC2)C(=O)N4C)cc1NS(C)(=O)=O` [Example 293, N-(2-(3-((2-Cyanoethyl)(methyl)amino)propoxy)-5-(3′-methyl-2′-oxo-2′3′-dihydrospiro[cyclobutane-1,1′-pyrrolo[2,3-c]quinolin]-8′-yl)pyridin-3-yl)methanesulfonamide], the IC50 at DNA-PK (ATP 20 μM) and against ATM (setting [1]) was above 100 nM each time.

As for `CCN(C)S(=O)(=O)Nc1cc(-c2ccc3ncc4c(c3c2)C2(CCC2)C(=O)N4C)cnc1N1CCC(N2CCCCC2)CC1` [Example 212, 8′-(6-{[1,4′-Bipiperidine]-1′-yl}-5-[(ethyl(methyl)sulfamoyl)amino}pyridin-3-yl)-3′-methyl-2′,3′-dihydrospiro[cyclobutane-1,1′-pyrrolo[2,3-c]quinoline]-2′-one], the 50% inhibitory concentration (IC50) on DNA-PK (ATP 20 μM) and against ATM (setting [1]) was 1 to 100 nM in each case.

As to `CN1C(=O)C2(CC2)c2c1cnc1ccc(-c3cnc(OCCC4CCCN4C)c(NS(=O)(=O)C4CC4)c3)cc21` (centres unmarked) [Example 79, N-(5-(3-Methyl-2′-oxo-2′,3′-dihydrospiro[cyclopropane-1,1′-pyrrolo[2,3-c]quinolin]-8′-yl)-2-(2-(1-methylpyrrolidin-2-yl)ethoxy)pyridin-3-yl)cyclopropanesulfonamide], the IC50 on DNA-PK (ATP 20 μM) and against ATM (setting [1]) was 1 to 100 nM throughout.

Consider `COc1cccc(S(=O)(=O)Nc2cc(-c3ccc4ncc5c(c4c3)C3(CC3)C(=O)N5C)cnc2OCCCN(C)C)c1` [Example 104], for which the values for the half-maximal inhibitory concentration (IC50) against DNA-PK (ATP 20 μM) and against ATM (setting [1]) were 1 to 100 nM and 0.5 to 1 nM, respectively.

As to `CN(C)CCCOc1ncc(-c2ccc3ncc4c(c3c2)C2(CC(F)(F)C2)C(=O)N4C)cc1NS(C)(=O)=O` [Example 554, N-(5-(3,3-Difluoro-3′-methyl-2′-oxo-2′,3′-dihydrospiro[cyclobutane-1,1′-pyrrolo[2,3-c]quinolin]-8′-yl)-2-(3-(dimethylamino)propoxy)pyridin-3-yl)methanesulfonamide], the IC50 against DNA-PK (20 μM ATP) and on ATM (setting [2]) was 1 to 100 nM each time.

As to `COCc1ccc(N2CC3(C2)C(=O)N(C)c2cnc4cc(F)c(-c5cnc(OCCNC(C)C)c(NS(C)(=O)=O)c5)cc4c23)cc1` [Example 532, N-(5-(7′-Fluoro-1-(4-(methoxymethyl)phenyl)-3′-methyl-2′-oxo-2′,3′-dihydrospiro[azetidine-3,1′-pyrrolo[2,3-c]quinolin]-8′-yl)-2-(2-(isopropylamino)ethoxy)pyridin-3-yl)methanesulfonamide], the half-inhibitory concentration (IC50) at DNA-PK (20 μM ATP) was below 0.5 nM; at ATM (setting [2]) it was 1 to 100 nM.
